Test results: ChEMBL document CHEMBL3763146 (J Med Chem, 2016)

Legend:
[1] = biological target: Beta-3 adrenergic receptor (Canis lupus familiaris, UniProt O02662); assay: Agonist activity at dog beta3 adrenergic receptor expressed in CHO cells assessed as accumulation of cAMP after 30 mins by TR-FRET assay; type: functional, cell-based
[2] = biological target: T1, Beta-3 adrenergic receptor (Homo sapiens, UniProt P13945); assay: Agonist activity at human adrenergic beta3 receptor expressed in CHO cells assessed as accumulation of cAMP after 30 mins by TR-FRET assay in presence of 40% serum relative to (R)-(-)-isoproterenol; type: functional, cell-based
Target sequence in this assay (P13945 whole entry, looked up): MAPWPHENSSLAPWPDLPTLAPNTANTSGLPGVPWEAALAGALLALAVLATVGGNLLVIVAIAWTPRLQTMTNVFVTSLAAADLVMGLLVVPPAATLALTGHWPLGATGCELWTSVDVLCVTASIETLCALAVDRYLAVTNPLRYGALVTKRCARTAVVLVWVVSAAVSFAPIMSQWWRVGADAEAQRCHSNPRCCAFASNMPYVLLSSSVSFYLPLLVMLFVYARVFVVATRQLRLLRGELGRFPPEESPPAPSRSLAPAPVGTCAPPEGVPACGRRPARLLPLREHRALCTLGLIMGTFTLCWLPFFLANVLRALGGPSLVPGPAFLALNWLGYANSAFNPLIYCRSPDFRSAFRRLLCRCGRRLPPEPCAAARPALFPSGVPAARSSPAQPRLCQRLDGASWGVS

[3] = biological target: Beta-3 adrenergic receptor (Rattus norvegicus) (UniProt P26255); assay: Agonist activity at rat beta3 adrenergic receptor expressed in CHO cells assessed as accumulation of cAMP after 30 mins by TR-FRET assay in presence of 40% serum relative to (R)-(-)-isoproterenol; type: functional, cell-based
Chain of Beta-3 adrenergic receptor (Rattus norvegicus) (P26255 whole entry): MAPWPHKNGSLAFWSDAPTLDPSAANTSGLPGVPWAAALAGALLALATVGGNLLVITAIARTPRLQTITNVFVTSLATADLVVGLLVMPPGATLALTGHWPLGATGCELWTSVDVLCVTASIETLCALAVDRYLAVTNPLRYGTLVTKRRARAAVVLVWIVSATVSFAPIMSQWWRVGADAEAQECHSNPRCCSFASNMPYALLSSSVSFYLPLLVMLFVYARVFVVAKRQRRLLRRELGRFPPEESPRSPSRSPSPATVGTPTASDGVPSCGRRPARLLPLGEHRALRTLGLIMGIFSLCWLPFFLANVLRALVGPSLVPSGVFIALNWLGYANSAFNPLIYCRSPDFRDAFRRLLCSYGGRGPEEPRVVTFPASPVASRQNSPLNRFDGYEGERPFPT

[4] = Induction of phospholidosis in human HepG2 cells incubated overnight by […] in presence of fluorescent labeled phospholipid probe NBD-PE; type: cell-based; conditions: read-out: A50
[5] = biological target: Sodium-dependent serotonin transporter (Homo sapiens, UniProt P31645); assay: Inhibition of human SERT expressed in HEK293 cells preincubated for 30 mins followed by fluorescent substrate addition measured after 30 mins by plate reader analysis; type: cell-based
[6] = Distribution coefficient, logD of the compound at pH 7.4; type: physicochemical; conditions: octanol/water
[7] = biological target: Sodium channel protein type 2 subunit alpha (Homo sapiens, UniProt Q99250); assay: Inhibition of human Nav1.2 channel expressed in Xenopus oocytes by two-intracellular microelectrode voltage clamp method; type: cell-based
Chain of Sodium channel protein type 2 subunit alpha (Q99250 whole entry, looked up): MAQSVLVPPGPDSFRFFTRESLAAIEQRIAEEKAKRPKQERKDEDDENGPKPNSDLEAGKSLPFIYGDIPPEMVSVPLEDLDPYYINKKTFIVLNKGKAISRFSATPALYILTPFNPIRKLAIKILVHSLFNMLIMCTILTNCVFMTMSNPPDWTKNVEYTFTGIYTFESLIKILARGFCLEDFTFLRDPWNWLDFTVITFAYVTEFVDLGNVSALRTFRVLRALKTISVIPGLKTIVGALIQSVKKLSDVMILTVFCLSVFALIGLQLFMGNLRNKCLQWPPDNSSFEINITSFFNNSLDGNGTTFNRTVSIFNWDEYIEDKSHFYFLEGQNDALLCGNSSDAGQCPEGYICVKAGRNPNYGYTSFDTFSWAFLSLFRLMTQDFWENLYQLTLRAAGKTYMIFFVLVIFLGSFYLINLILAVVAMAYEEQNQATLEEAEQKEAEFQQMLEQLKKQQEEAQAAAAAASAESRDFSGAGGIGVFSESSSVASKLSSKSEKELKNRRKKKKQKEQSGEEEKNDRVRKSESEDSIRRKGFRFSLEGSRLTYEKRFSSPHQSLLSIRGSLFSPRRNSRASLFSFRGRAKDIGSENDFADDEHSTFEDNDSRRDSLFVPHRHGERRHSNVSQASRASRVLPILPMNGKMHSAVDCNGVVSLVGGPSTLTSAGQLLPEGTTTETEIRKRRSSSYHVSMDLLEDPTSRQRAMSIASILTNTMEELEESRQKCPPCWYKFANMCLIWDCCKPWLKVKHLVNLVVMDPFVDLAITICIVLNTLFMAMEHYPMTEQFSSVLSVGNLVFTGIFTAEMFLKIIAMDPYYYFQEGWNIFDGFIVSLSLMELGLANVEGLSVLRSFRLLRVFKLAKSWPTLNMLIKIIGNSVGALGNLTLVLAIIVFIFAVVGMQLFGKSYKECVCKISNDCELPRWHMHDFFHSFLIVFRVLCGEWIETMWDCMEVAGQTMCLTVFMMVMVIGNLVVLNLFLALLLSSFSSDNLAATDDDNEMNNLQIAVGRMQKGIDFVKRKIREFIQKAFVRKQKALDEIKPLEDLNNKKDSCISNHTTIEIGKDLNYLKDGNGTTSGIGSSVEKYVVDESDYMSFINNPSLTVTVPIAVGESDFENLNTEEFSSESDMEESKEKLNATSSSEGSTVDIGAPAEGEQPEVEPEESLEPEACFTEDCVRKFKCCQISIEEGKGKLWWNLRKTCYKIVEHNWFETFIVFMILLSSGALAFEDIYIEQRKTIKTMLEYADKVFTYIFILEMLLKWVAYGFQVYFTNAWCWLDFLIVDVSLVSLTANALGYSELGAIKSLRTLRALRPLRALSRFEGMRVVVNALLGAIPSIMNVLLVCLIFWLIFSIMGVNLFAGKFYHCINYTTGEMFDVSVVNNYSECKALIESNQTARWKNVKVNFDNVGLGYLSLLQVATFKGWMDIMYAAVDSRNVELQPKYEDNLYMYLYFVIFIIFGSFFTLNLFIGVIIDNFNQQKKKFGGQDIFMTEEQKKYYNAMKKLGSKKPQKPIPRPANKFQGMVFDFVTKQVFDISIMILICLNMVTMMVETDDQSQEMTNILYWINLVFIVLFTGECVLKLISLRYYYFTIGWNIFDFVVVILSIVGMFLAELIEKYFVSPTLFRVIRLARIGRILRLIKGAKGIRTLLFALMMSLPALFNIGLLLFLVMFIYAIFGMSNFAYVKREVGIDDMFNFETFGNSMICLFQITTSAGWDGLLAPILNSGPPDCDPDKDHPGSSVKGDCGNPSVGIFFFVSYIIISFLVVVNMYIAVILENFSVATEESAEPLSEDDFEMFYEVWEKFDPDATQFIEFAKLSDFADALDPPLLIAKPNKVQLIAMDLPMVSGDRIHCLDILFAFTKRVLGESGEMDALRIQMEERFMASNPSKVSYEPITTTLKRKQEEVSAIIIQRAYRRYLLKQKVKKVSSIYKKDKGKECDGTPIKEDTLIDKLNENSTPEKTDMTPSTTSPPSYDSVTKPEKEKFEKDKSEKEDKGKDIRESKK

[8] = biological target: Voltage-dependent L-type calcium channel subunit alpha-1C (Homo sapiens, UniProt Q13936); assay: Displacement of [3H]-diltiazem from human Cav1.2 channel
[9] = biological target: Cytochrome P450 3A4 (Homo sapiens, UniProt P08684); assay: Inhibition of CYP3A4 in human liver microsomes assessed as testosterone 6beta-hydroxylation; type: ADME
[10] = biological target: Cytochrome P450 2D6 (Homo sapiens, UniProt P10635); assay: Inhibition of CYP2D6 in human liver microsomes assessed as dextraomethorphan O-demethylation; type: ADME
[11] = biological target: Cytochrome P450 2C9 (Homo sapiens, UniProt P11712); assay: Inhibition of CYP2C9 in human liver microsomes assessed as diclofenac alpha'-hydroxylation; type: ADME
Chain of Cytochrome P450 2C9 (P11712 whole entry): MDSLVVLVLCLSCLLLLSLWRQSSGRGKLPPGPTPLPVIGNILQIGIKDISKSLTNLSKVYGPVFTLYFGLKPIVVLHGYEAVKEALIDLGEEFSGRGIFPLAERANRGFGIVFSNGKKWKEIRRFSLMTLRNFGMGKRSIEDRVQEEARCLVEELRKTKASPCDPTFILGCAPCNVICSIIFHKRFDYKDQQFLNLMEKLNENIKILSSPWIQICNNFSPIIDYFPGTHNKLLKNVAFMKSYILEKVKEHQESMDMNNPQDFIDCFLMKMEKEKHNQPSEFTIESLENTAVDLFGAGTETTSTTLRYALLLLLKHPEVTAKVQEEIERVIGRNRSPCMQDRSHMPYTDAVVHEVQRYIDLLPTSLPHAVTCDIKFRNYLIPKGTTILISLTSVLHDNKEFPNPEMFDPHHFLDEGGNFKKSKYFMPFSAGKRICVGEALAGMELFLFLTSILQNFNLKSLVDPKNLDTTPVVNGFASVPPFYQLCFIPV

[12] = biological target: T1, Beta-3 adrenergic receptor; assay: Agonist activity at human beta3 adrenergic receptor expressed in CHO cells assessed as accumulation of cAMP after 30 mins by TR-FRET assay relative to (R)-(-)-isoproterenol; type: functional, cell-based
Target sequence in this assay (P13945 whole entry, looked up): as the sequence (P13945 whole entry, looked up) above

[13] = biological target: T1, Beta-3 adrenergic receptor; assay: Agonist activity at human beta3 adrenergic receptor expressed in CHO cells assessed as accumulation of cAMP after 30 mins by TR-FRET assay; type: functional, cell-based
Target sequence in this assay (P13945 whole entry): as the sequence (P13945 whole entry, looked up) above

[14] = Plasma clearance in rat at 1 mg/kg, iv or 2 mg/kg, po; type: ADME, organism-based
[15] = Plasma clearance in dog at 0.5 mg/kg, iv or 2 mg/kg, po; type: ADME, organism-based, Canis lupus familiaris
[16] = Stability in human plasma assessed as parent compound remaining at 24 hrs by LC-MS analysis; type: ADME, cell-free; conditions: read-out: Stability
[17] = Plasma clearance in rhesus monkey at 0.5 mg/kg, iv or 2 mg/kg, po; type: ADME, organism-based, Macaca mulatta
[18] = system: Rattus norvegicus; assay: Unbound clearance in rat at 1 mg/kg, iv or 2 mg/kg, po; type: ADME, organism-based; conditions: in vivo
[19] = system: Canis familiaris; assay: Unbound clearance in dog at 0.5 mg/kg, iv or 2 mg/kg, po; type: ADME, organism-based, Canis lupus familiaris; conditions: in vivo
[20] = system: Rhesus monkey; assay: Unbound clearance in rhesus monkey at 0.5 mg/kg, iv or 2 mg/kg, po; type: ADME, organism-based, Macaca mulatta; conditions: in vivo
[21] = Half life in rat at 1 mg/kg, iv or 2 mg/kg, po; type: ADME, organism-based; conditions: in vivo
[22] = Half life in dog at 0.5 mg/kg, iv or 2 mg/kg, po; type: ADME, organism-based, Canis lupus familiaris; conditions: in vivo
[23] = Half life in rhesus monkey at 0.5 mg/kg, iv or 2 mg/kg, po; type: ADME, organism-based, Macaca mulatta; conditions: in vivo
[24] = system: Rattus norvegicus; assay: Dose normalized total AUC in rat at 2 mg/kg, po; type: ADME, organism-based; conditions: in vivo
[25] = system: Canis familiaris; assay: Dose normalized total AUC in dog at 2 mg/kg, po; type: ADME, organism-based, Canis lupus familiaris; conditions: in vivo
[26] = system: Rhesus monkey; assay: Dose normalized total AUC in rhesus monkey at 2 mg/kg, po; type: ADME, organism-based, Macaca mulatta; conditions: in vivo
[27] = system: Rattus norvegicus; assay: Dose normalized fAUC in rat at 2 mg/kg, po; type: ADME, organism-based; conditions: in vivo
[28] = system: Canis familiaris; assay: Dose normalized fAUC in dog at 2 mg/kg, po; type: ADME, organism-based, Canis lupus familiaris; conditions: in vivo
[29] = system: Rhesus monkey; assay: Dose normalized fAUC in rhesus monkey at 2 mg/kg, po; type: ADME, organism-based, Macaca mulatta; conditions: in vivo
[30] = Oral bioavailability in rat at 2 mg/kg; type: ADME, organism-based; conditions: in vivo
[31] = Oral bioavailability in dog at 2 mg/kg; type: ADME, organism-based, Canis lupus familiaris; conditions: in vivo
[32] = Oral bioavailability in rhesus monkey at 2 mg/kg; type: ADME, organism-based, Macaca mulatta; conditions: in vivo
[33] = Fraction unbound in rat at 1 mg/kg, iv or 2 mg/kg, po; type: ADME, organism-based; conditions: in vivo
[34] = Fraction unbound in dog at 0.5 mg/kg, iv or 2 mg/kg, po; type: ADME, organism-based, Canis lupus familiaris; conditions: in vivo
[35] = Fraction unbound in rhesus monkey at 0.5 mg/kg, iv or 2 mg/kg, po; type: ADME, organism-based, Macaca mulatta; conditions: in vivo
[36] = Intrinsic clearance in rat liver microsomes; type: ADME; conditions: read-out: CLH
[37] = Intrinsic clearance in dog liver microsomes; type: ADME, Canis lupus familiaris; conditions: read-out: CLH
[38] = Intrinsic clearance in human liver microsomes; type: ADME; conditions: read-out: CLH
[39] = Intrinsic clearance in rhesus monkey liver microsomes; type: ADME, Macaca mulatta; conditions: read-out: CLH
[40] = Stability in rat plasma assessed as parent compound remaining at 24 hrs by LC-MS analysis; type: ADME, cell-free; conditions: read-out: Stability
[41] = Stability in dog plasma assessed as parent compound remaining at 24 hrs by LC-MS analysis; type: ADME, cell-free, Canis lupus familiaris; conditions: read-out: Stability
[42] = Stability in rhesus monkey plasma assessed as parent compound remaining at 24 hrs by LC-MS analysis; type: ADME, cell-free, Macaca mulatta; conditions: read-out: Stability
[43] = biological target: T2, Beta-3 adrenergic receptor (Rattus norvegicus, UniProt P26255); assay: Agonist activity at rat beta3 adrenergic receptor expressed in CHO cells assessed as accumulation of cAMP after 30 mins by TR-FRET assay; type: functional, cell-based
T2 sequence (P26255 whole entry): as the sequence (P26255 whole entry) above

[44] = biological target: Beta-3 adrenergic receptor (Rattus norvegicus) (UniProt P26255); assay: Agonist activity at rat beta3 adrenergic receptor expressed in CHO cells assessed as accumulation of cAMP after 30 mins by TR-FRET assay relative to (R)-(-)-isoproterenol; type: functional, cell-based
[45] = biological target: Beta-3 adrenergic receptor (Macaca mulatta, UniProt Q28524); assay: Agonist activity at rhesus monkey beta3 adrenergic receptor expressed in CHO cells assessed as accumulation of cAMP after 30 mins by TR-FRET assay; type: functional, cell-based
Chain of Beta-3 adrenergic receptor (Macaca mulatta, UniProt Q28524) (Q28524 whole entry): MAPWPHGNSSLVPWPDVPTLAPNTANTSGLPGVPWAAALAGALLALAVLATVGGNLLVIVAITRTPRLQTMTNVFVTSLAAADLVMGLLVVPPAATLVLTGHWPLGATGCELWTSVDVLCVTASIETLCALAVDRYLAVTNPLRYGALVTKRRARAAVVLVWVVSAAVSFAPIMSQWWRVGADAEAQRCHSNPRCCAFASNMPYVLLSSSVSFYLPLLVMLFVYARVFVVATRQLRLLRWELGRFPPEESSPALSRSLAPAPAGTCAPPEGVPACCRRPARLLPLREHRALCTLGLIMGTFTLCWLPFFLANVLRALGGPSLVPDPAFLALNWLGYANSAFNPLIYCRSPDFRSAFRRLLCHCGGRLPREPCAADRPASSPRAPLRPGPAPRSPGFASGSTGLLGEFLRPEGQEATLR

[46] = biological target: Beta-3 adrenergic receptor (Macaca mulatta) (UniProt Q28524); assay: Agonist activity at rhesus monkey beta3 adrenergic receptor expressed in CHO cells assessed as accumulation of cAMP after 30 mins by TR-FRET assay relative to (R)-(-)-isoproterenol; type: functional, cell-based
Chain of Beta-3 adrenergic receptor (Macaca mulatta) (Q28524 whole entry): as above

[47] = biological target: T2, Beta-3 adrenergic receptor; assay: Agonist activity at rat beta3 adrenergic receptor expressed in CHO cells assessed as accumulation of cAMP after 30 mins by TR-FRET assay in presence of 40% serum; type: functional, cell-based
[48] = biological target: T1, Beta-3 adrenergic receptor; assay: Agonist activity at human adrenergic beta3 receptor expressed in CHO cells assessed as accumulation of cAMP after 30 mins by TR-FRET assay in presence of 40% serum; type: functional, cell-based
Target sequence in this assay (P13945 whole entry): as the sequence (P13945 whole entry, looked up) above

[49] = system: Rattus norvegicus; assay: Increase in detrusor muscle relaxation in iv infused Sprague-Dawley rat acetic acid-induced bladder hyperreflexia model assessed as decrease in micturition pressure measured over 30 to 45 mins; type: functional, organism-based
[50] = system: Rattus norvegicus; assay: Increase in detrusor muscle relaxation in iv infused Sprague-Dawley rat acetic acid-induced bladder hyperreflexia model assessed as increase in functional bladder capacity measured over 30 to 45 mins; type: organism-based
[51] = biological target: Beta-2 adrenergic receptor (Homo sapiens, UniProt P07550)
Description: Displacement of [125]I-cyanopindolol from human recombinant beta2 adrenergic receptor after 1 hr by scintillation counting method

[52] = biological target: Beta-1 adrenergic receptor (Homo sapiens, UniProt P08588)
Chain of Beta-1 adrenergic receptor (P08588 whole entry): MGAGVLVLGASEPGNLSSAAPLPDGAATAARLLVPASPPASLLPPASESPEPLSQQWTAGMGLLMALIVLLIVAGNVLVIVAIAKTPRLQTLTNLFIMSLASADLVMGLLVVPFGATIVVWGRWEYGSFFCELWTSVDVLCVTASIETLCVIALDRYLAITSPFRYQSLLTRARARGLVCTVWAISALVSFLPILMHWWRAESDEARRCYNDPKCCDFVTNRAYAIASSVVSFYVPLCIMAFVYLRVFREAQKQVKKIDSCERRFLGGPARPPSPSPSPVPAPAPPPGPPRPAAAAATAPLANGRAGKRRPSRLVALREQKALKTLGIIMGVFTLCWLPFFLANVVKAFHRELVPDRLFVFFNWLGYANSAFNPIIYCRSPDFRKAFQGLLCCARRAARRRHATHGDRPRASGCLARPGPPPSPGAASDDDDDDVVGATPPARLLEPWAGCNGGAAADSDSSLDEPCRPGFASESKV
Description: Displacement of [125]I-cyanopindolol from recombinant human beta1 adrenergic receptor after 1 hr by scintillation counting method

Chain of Beta-3 adrenergic receptor (Canis lupus familiaris, UniProt O02662) (O02662 whole entry): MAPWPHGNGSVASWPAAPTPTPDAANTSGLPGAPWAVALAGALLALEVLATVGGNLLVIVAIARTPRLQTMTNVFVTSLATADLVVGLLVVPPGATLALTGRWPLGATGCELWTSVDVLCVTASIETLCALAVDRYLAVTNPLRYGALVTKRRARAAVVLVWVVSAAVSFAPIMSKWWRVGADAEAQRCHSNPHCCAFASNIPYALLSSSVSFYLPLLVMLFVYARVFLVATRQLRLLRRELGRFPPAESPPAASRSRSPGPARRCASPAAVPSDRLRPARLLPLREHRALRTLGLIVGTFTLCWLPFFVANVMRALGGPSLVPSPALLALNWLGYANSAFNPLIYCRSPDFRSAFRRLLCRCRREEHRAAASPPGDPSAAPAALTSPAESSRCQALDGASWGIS

O=C(Cn1ncccc1=O)Nc1ccc(C[C@@H]2CC[C@H]([C@H](O)c3ccccc3)N2)cc1
EC50 [1]: 47 nM
max activation [2]: 96%
max activation [3]: 99%
AC50 [4]: 67000 nM
IC50 [5]: 4400 nM
logD [6]: 1
IC50 [7]: > 30000 nM
IC50 [8]: > 30000 nM
IC50 [9]: > 100000 nM
IC50 [10]: > 100000 nM
IC50 [11]: > 100000 nM
max activation [12]: 105%
EC50 [13]: 4.8 nM
clearance [14]: 40 mL/min/kg
clearance [15]: 7.4 mL/min/kg
remaining at 24 h [16]: 26%
clearance [17]: 21 mL/min/kg
CL free [18]: 148 mL/min/kg
CL free [19]: 15 mL/min/kg
CL free [20]: 33 mL/min/kg
half-life [21]: 5 h
half-life [22]: 8 h
half-life [23]: 9 h
AUC/dose [24]: 66 nM·h/mg/kg
AUC/dose [25]: 1200 nM·h/mg/kg
AUC/dose [26]: 820 nM·h/mg/kg
fAUC/dose [27]: 17 nM·h/mg/kg
fAUC/dose [28]: 612 nM·h/mg/kg
fAUC/dose [29]: 517 nM·h/mg/kg
bioavailability [30]: 14%
bioavailability [31]: 18%
bioavailability [32]: 46%
fraction unbound [33]: 0.27
fraction unbound [34]: 0.51
fraction unbound [35]: 0.63
CLint scaled [36]: < 15 mL/min/kg
CLint scaled [37]: 11 mL/min/kg
CLint scaled [38]: < 10 mL/min/kg
CLint scaled [39]: < 10 mL/min/kg
remaining at 24 h [40]: 95%
remaining at 24 h [41]: 100%
remaining at 24 h [42]: 95%
EC50 [43]: 615 nM
max activation [44]: 79%
EC50 [45]: 3.5 nM
max activation [46]: 91%
EC50 [47]: 1060 nM
EC50 [48]: 5.9 nM
Activity [49]: Dose-dependent effect
Activity [50]: Dose-dependent effect
IC50 [51]: > 20000 nM
IC50 [52]: > 20000 nM
